{"source": "paper PMC3953729", "about": "(FEBS Open Bio, 2014)", "key": {"[1]": {"target": "cyclohexanone monooxygenase (CHMO) (Acinetobacter johnsonii, UniProt P12015)", "assay": "FAD absorbance change on titration", "assay_type": "binding"}, "[2]": {"target": "cyclohexanone monooxygenase (CHMO) (Acinetobacter johnsonii, UniProt P12015, L323C/A325C)", "settings": "oxidised enzyme, engineered disulfide formed"}}, "data": [{"smiles": "NC(=O)c1ccc[n+]([C@@H]2O[C@H](COP(=O)(O)OP(=O)(O)OC[C@H]3O[C@@H](n4cnc5c(N)ncnc54)[C@H](OP(=O)(O)O)[C@@H]3O)[C@@H](O)[C@H]2O)c1", "note": "[NADP^+]", "values": [{"measurement": "Kd", "setting": "[1]", "result": 28, "unit": "µM"}, {"measurement": "Kd", "setting": "[2]", "result": 15, "unit": "µM"}]}]}
